Earlier results as cited in patent US9592230B2, “Substituted imidazoles as PDE10A inhibitors” (priority 2008, dated 2017).

Assays:
[1] = tested on: cataleptic effect of the D2 receptor antagonist haloperidol; settings: rats
[2] = tested on: hyperactivity in rats induced by PCP
[3] = tested on: amphetamine induced hyperactivity; settings: rats

For `COc1ccc(Cc2nccc3cc(OC)c(OC)cc23)cc1OC` [Papaverine, papaverine], the “catalepsy on its own” value ([1]; alone) is given as “did not cause catalepsy on its own”, the “effect on the cataleptic effect of haloperidol” value ([1]; together with haloperidol) is given as “potentiated the cataleptic effect” and the “hyperactivity induced by PCP” value [2] is given as “reduced hyperactivity”. For the same compound, the “reduction of amphetamine induced hyperactivity” value [3] was “insignificant”.
